In PubChem BioAssay (NCI):
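Each compound was tested at five concentrations against cells in 96-well plates for 48 hours. Abbreviation: GI50, concentration required for 50% inhibition of growth. At the TGI there is no net growth.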 Where a SMILES comes first, the peptide text is derived from it. Bridges are numbered along the chain shown (N, C = ends). Roman numbers before positions name the chains, in order. [ ]: non-standard residue; d: D form. The star is where a group is joined. Heptadecanoyl = CCCCCCCCCCCCCCCCC(=O)*; Phg = N[CH](C(=O)O)c1ccccc1

Key:
Assay in all cases: NCI-60 cell line screen, 48 h
SW-620 colon = tested on: SW-620 colon
OVCAR-4 ovarian = tested on: OVCAR-4 ovarian
HCC-2998 colon = tested on: HCC-2998 colon
A498 renal = tested on: A498 renal
SF-539 CNS = tested on: SF-539 CNS
CAKI-1 renal = tested on: CAKI-1 renal
NCI-H226 lung = tested on: NCI-H226 lung
RXF 393 renal = tested on: RXF 393 renal
BT-549 breast = tested on: BT-549 breast
NCI-H522 lung = tested on: NCI-H522 lung

Row | Compound | TGI (SW-620 colon) [µM] | TGI (OVCAR-4 ovarian) [µM] | TGI (HCC-2998 colon) [µM] | TGI (A498 renal) [µM] | TGI (SF-539 CNS) [µM] | TGI (CAKI-1 renal) [µM] | TGI (NCI-H226 lung) [µM] | TGI (RXF 393 renal) [µM] | GI50 (SW-620 colon) [µM] | GI50 (OVCAR-4 ovarian) [µM] | GI50 (HCC-2998 colon) [µM] | GI50 (A498 renal) [µM] | GI50 (SF-539 CNS) [µM] | GI50 (CAKI-1 renal) [µM] | GI50 (NCI-H226 lung) [µM] | GI50 (BT-549 breast) [µM] | TGI (BT-549 breast) [µM] | GI50 (RXF 393 renal) [µM] | GI50 (NCI-H522 lung) [µM] | TGI (NCI-H522 lung) [µM]
1 | CCOC(=O)c1cc(Cl)ccc1OC(N)=O | > 100 | > 100 | > 100 | > 100 | > 100 | > 100 | > 100 | > 100 |  |  |  |  |  |  |  |  |  |  |  | 
2 | CCCCCCCCCCCCCCCCC(=O)N1CCCC1C(=O)NCC(=O)NC(C(=O)N1CCCC1C(=O)NC(CO)C(=O)NC(Cc1ccc(O)cc1)C(=O)NC(CCCCNC(=O)C1CCCN1C(=O)C(CCCCN)NC(=O)C(CCCCN)NC(=O)C(CCCCN)NC(=O)C(CCCNC(=N)N)NC(=O)C(CCCCN)NC(=O)C(N)C(C)C)C(=O)NC(CC(C)C)C(=O)NC(CCCNC(=N)N)C(=O)N1CCCC1C(=O)NCC(N)=O)c1ccccc1 (centres undefined) (I: Heptadecanoyl-PG[Phg]PSYKLRPG-NH2 / II: H-VKRKKKP; amide I:7-II:C; configuration not given here) | > 100 | > 100 | 29.9 | > 100 | > 100 | 47.7 | 49.3 | > 100 | 40.5 | 46.9 | 4.36 | 76.3 | 34.4 | 22.9 | 22.1 | 36.5 | 89.3 | 36.8 | 25.5 | 85.9
3 | Nc1nc(Cl)nc2c1ncn2C1CCC(CO)O1 (centres undefined) | > 100 | > 100 |  | > 100 |  | > 100 | > 100 | > 100 |  |  |  |  |  |  |  |  | > 100 |  |  | 
4 | N#CC(C#N)=Cc1ccc(-c2ccc(-c3nc4ccccc4s3)cc2)s1 | > 100 | > 100 | 65.8 | 41.1 | 36.3 | 47.4 | 36.8 | > 100 | 19.8 | 51.9 | 27.9 | 18.7 | 18.3 | 20.9 | 14.7 | 31.1 | 85.2 | 40.5 | 19.4 | 54
5 | C(=N/Nc1ccccn1)/c1cccnc1 | > 100 | > 100 | > 100 | > 100 | > 100 | > 100 | > 100 | > 100 |  |  |  |  |  |  |  |  | > 100 |  |  | > 100
6 | CN(C)C(=S)SCc1ccccc1 | > 100 |  |  | > 100 | > 100 | > 100 | > 100 | > 100 |  |  |  |  |  |  |  |  | > 100 |  |  | > 100
7 | C/C(=C\c1ccc2c(c1)OCO2)[N+](=O)[O-] | > 100 | 14 | 7.34 | 24.3 | 9.24 | 4.41 | 28.6 |  |  |  |  |  |  |  |  |  |  |  |  | 3.21
8 | Cc1cccc(C(O)c2ccccn2)c1O (centres undefined) | > 100 |  | > 100 |  | > 100 | > 100 | > 100 | > 100 |  |  |  |  |  |  |  |  | > 100 |  |  | > 100
